What follows are molecules tested against T1, HCMV polymerase (Human cytomegalovirus, UniProt P08546) (assay: HCMV polymerase assay (scintillation proximity assay)). Conditions: percentage of inhibition at 25 μM concentration in CMV polymerase assay.
T1 construct: made in house; host or cells: SF-9 insect cells infected with recombinant baculovirus
Type: biochemical
How it was run: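 Baculovirus/SF-9-expressed HCMV polymerase in 5.4 mM HEPES pH 7.5, 11.7 mM KCl, 4.5 mM MgCl2, 0.36 mg/ml BSA, 90 nM 3H-dTTP, with or without 2 mM CHAPS. Started with 6 nM biotinylated poly(dA)-oligo(dT), 30 min at 25 or 37 °C, EDTA-stopped, read by streptavidin-SPA counting; % inhibition at 25 μM.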

T1 sequence (P08546 whole entry): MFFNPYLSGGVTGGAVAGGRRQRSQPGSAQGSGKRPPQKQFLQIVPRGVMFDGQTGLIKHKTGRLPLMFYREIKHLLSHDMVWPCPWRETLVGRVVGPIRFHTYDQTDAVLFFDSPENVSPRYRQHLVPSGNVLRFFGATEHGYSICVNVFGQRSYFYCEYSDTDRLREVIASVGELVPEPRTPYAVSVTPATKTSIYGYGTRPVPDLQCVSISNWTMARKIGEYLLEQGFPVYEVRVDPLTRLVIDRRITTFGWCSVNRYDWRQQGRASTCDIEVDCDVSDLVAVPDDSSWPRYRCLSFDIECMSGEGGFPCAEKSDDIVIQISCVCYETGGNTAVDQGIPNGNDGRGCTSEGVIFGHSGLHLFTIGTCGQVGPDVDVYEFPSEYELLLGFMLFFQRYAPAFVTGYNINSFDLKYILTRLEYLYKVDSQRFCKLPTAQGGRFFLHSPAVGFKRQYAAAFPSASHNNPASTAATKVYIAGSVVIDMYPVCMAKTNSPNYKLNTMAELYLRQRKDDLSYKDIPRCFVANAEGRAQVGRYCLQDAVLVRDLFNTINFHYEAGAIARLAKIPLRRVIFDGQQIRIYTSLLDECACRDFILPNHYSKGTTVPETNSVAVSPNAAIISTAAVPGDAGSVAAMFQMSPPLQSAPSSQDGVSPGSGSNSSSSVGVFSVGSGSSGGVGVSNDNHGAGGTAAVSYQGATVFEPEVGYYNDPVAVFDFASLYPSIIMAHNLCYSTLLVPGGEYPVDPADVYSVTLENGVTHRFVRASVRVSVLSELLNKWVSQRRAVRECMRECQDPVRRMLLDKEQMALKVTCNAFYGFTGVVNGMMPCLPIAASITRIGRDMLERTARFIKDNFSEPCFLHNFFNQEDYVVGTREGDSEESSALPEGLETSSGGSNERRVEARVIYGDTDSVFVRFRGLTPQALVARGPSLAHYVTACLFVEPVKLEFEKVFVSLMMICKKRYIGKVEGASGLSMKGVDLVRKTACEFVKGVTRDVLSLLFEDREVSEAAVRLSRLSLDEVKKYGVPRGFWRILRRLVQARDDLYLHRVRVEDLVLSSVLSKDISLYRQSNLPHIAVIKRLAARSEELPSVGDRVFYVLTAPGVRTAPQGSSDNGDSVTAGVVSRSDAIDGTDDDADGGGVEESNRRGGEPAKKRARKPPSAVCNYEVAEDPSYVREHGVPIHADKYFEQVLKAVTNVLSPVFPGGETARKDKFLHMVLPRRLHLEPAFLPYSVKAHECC

| SMILES | inhibition at 25 µM |
| --- | --- |
| N#Cc1ccc(C(=O)Nc2nnc(NCc3ccc(Cl)c(Cl)c3)s2)cc1 [compound 140, 4-cyano-N-{5-[(3,4-dichlorobenzyl)amino]-1,3,4-thiadiazol-2-yl}benzamide] | 56.2% |
| CCOc1ccc2ccccc2c1C(=O)Nc1nnc(NCCc2c[nH]c3ccccc23)s1 [compound 141, 2-ethoxy-N-(5-{[2-(1H-indol-3-yl)ethyl]amino}-1,3,4-thiadiazol-2-yl)-1-naphthamide] | 55.7% |
| NS(=O)(=O)c1ccc(CCNc2nnc(NC(=O)c3ccc(Cl)c(Cl)c3)s2)cc1 [compound 142, N-(5-{[4-(aminosulfonyl)phenethyl]amino}-1,3,4-thiadiazol-2-yl)-3,4-dichlorobenzamide] | 55.4% |
| N#Cc1ccc(C(=O)Nc2nnc(NCCCCc3ccccc3)s2)cc1 [compound 143, 4-cyano-N-{5-[(4-phenylbutyl)amino]-1,3,4-thiadiazol-2-yl}benzamide] | 55.4% |
| O=C(Nc1nnc(NCc2ccc(F)cc2)s1)c1c(Cl)cccc1Cl [compound 144, 2,6-dichloro-N-{5-[(4-fluorobenzyl)amino]-1,3,4-thiadiazol-2-yl}benzamide] | 55.2% |
| CCCCCCCCCCCNc1nnc(NC(=O)c2c(OCC)ccc3ccccc23)s1 [compound 145, 2-ethoxy-N-[5-(undecylamino)-1,3,4-thiadiazol-2-yl]-1-naphthamide] | 54.9% |
| N#CCCNc1nnc(NC(=O)c2c(Cl)cccc2Cl)s1 [compound 146, 2,6-dichloro-N-{5-[(2-cyanoethyl)amino]-1,3,4-thiadiazol-2-yl}benzamide] | 54.8% |
| CCCCCCCCCCCNc1nnc(NC(=O)c2ccc(I)cc2)s1 [compound 147, 4-iodo-N-[5-(undecylamino)-1,3,4-thiadiazol-2-yl]benzamide] | 54.7% |
| CCSCCNc1nnc(NC(=O)c2ccc(I)cc2)s1 [compound 148, N-(5-{[2-(ethylsulfanyl)ethyl]amino}-1,3,4-thiadiazol-2-yl)-4-iodobenzamide] | 54.6% |
| CCCCCCCC/C=C/CCCCCCCC(=O)Nc1nnc(NCCc2c[nH]c3ccccc23)s1 [compound 149, (E)-N-(5-{[2-(1H-indol-3-yl)ethyl]amino}-1,3,4-thiadiazol-2-yl)-9-octadecenamide] | 54.5% |
| O=C(Nc1nnc(NCCCN2CCCC2=O)s1)c1cc2ccccc2s1 [compound 150, N-(5-{[3-(2-oxo-1-pyrrolidinyl)propyl]amino}-1,3,4-thiadiazol-2-yl)-1-benzothiophene-2-carboxamide] | 54.5% |
| O=C(Nc1nnc(NC2CCN(Cc3ccccc3)CC2)s1)c1c(Cl)cccc1Cl [compound 151, N-{5-[(1-benzyl-4-piperidinyl)amino]-1,3,4-thiadiazol-2-yl}-2,6-dichlorobenzamide] | 54% |
| NS(=O)(=O)c1ccc(CCNc2nnc(NC(=O)c3ccc(Br)cc3)s2)cc1 [compound 152, N-(5-{[4-(aminosulfonyl)phenethyl]amino}-1,3,4-thiadiazol-2-yl)-4-bromobenzamide] | 53.9% |
| O=C(/C=C/c1ccccc1)Nc1nnc(NCCc2c[nH]c3ccccc23)s1 [compound 153, (E)-N-(5-{[2-(1H-indol-3-yl)ethyl]amino}-1,3,4-thiadiazol-2-yl)-3-phenyl-2-propenamide] | 53.7% |
| O=C(/C=C/c1ccccc1Cl)Nc1nnc(NCC(c2ccccc2)c2ccccc2)s1 [compound 154, (E)-3-(2-chlorophenyl)-N-{5-[(2,2-diphenylethyl)amino]-1,3,4-thiadiazol-2-yl}-2-propenamide] | 53.6% |
| N#Cc1ccc(C(=O)Nc2nnc(NCc3cccc4ccccc34)s2)cc1 [compound 155, 4-cyano-N-{5-[(1-naphthylmethyl)amino]-1,3,4-thiadiazol-2-yl}benzamide] | 53.3% |
| O=C(Nc1nnc(NCc2cccnc2)s1)c1c(Cl)cccc1Cl [compound 156, 2,6-dichloro-N-{5-[(3-pyridinylmethyl)amino]-1,3,4-thiadiazol-2-yl}benzamide] | 53.2% |

Source: patent publication US6150385A, “1,3,4-thiadiazoles useful for the treatment of CMV infections” (Pharmacia & Upjohn Company, priority 1999, dated 2000)
